Patent US4521339A, “Ansatrienols” (Nisshin Flour Milling Co., Ltd., priority 1981, dated 1985)
Values after ≈ are worked out from the molar mass of the structure shown. “Also recorded” adds a separate entry of the source.

Columns and labels:
L-5178Y lymphoma cells = test: Anti-tumor activity (in vitro) against L-5178Y lymphoma cells; type: cell-based; conditions: statement in words
Method: The cell growth was observed by a dilution method using an Eagle-NEM medium (Nissui) supplemented with 10% horse serum and 100 mg/l asparagine and cultivated at 37° C. for 120 hours. The T-23-I substance in ethanol solution was added to an assay system.
The cell growth was observed by a dilution method using an Eagle-NEM medium (Nissui) supplemented with 10% horse serum and 100 mg/l asparagine and cultivated at 37° C. for 120 hours. The T-23-II substance in ethanol solution was added to an assay system.

[1] = system: several types of tumor cells; test: Growth inhibition of several types of tumor cells; type: cell-based; conditions: statement in words
mouse leukemia P-388 = test: Anti-tumor activity against mouse leukemia P-388 (life span of mice); type: in vivo; conditions: CDF1 mice
Method: (§1) To six CDF1 male mice (20±1 g) of one group, 10^6 ascites tumor P-388 cells were transplanted intraperitoneally. The test material was administered first 24 hours and then 120 hours after transplantation. The dose of the test material suspended in gum arabic was 0.2 ml for each time. Increased life span was expressed in terms of % of the life span of the control group (administered with a gum arabic suspension).
as §1, with “after transplantation of” for “and”, “six times every 24 hours.” for “120 hours after transplantation.”

[2] = system: Mucor pusillus (IAM 6122); test: Antimicrobial activity (MIC, dilution method); type: cell-based; conditions: Rhizomucor pusillus, IAM6122, 30° C., 72 hours, read-out: MIC (minimum inhibitory concentration)
Method: (§2) The MIC (minimum inhibitory concentration) value of the T-23-I substance was determined by cultivation of a microorganism in a medium containing 1.0% glucose and 0.2% malt extract at 30° C. for 72 hours by a dilution method.
(§3) The MIC (minimum inhibitory concentration) value of the T-23-II substance was determined by cultivation of a microorganism in a medium containing 1.0% glucose and 0.2% malt extract at 30° C. for 72 hours by a dilution method.

[3] = system: Saccharomyces cerevisiae (IFO 0304); test: Antimicrobial activity (MIC, dilution method); type: cell-based; conditions: IFO0304, 30° C., 72 hours, read-out: MIC (minimum inhibitory concentration)
Method: as §2, §3

[4] = system: Penicillium chrysogenum (IAM 7106); test: Antimicrobial activity (MIC, dilution method); type: cell-based; conditions: IAM7106, 30° C., 72 hours, read-out: MIC (minimum inhibitory concentration)
Method: as §2, §3

[5] = system: Candida utilis (IFO 0396); test: Antimicrobial activity (MIC, dilution method); type: cell-based; conditions: Williopsis jadinii, IFO0396, 30° C., 72 hours, read-out: MIC (minimum inhibitory concentration)
Method: as §2, §3

[6] = system: Saccharomyces rouxii (IFO 0505); test: Antimicrobial activity (MIC, dilution method); type: cell-based; conditions: Zygosaccharomyces rouxii, IFO0505, 30° C., 72 hours, read-out: MIC (minimum inhibitory concentration)
Method: as §2, §3

[7] = system: Aspergillus japonicus (IAM 2016); test: Antimicrobial activity (MIC, dilution method); type: cell-based; conditions: IAM2016, 30° C., 72 hours, read-out: MIC (minimum inhibitory concentration)
Method: as §2, §3

Solubility in solvents = conditions: for Solubility in solvents: organic solvents; for Soluble in (continued line of the solubility entry): organic solvents in which the substance is soluble, continuation line
Acute toxicity = conditions: mouse, in vivo, ip
mouse sarcoma 180 = test: Anti-tumor activity against mouse sarcoma 180 (life span of mice); type: in vivo; conditions: ICR mice
Method: To six ICR male mice (25±1 g) of one group, 10^6 sarcoma 180 ascites tumor cells were transplanted intraperitoneally. The test material was administered first three hours after transplantation and then four times every 24 hours. The dose of the test material (T-23-II substance) suspended in gum arabic was 0.2 ml for each time. Increased life span was expressed in terms of % of the life span of the control group (administered with a gum arabic suspension).

SMILES: COC1C=CC=CC=CCC(OC(=O)[C@@H](C)NC(=O)C2CCCCC2)C(C)C(O)C(C)=CCCC2=CC(=O)C=C(NC(=O)C1)C2=O (stereo partly shown) [T-23-I substance]
- inhibition of the growth of L-5178Y lymphoma cells (L-5178Y lymphoma cells): effective to inhibit the growth of L-5178Y lymphoma cells
- inhibition of the growth of several types of tumor cells [1]: some significant effect to inhibit the growth of several types of tumor cells
- Increased life span T/C (mouse leukemia P-388; 0.75 mg/kg/day × 2 times): 105.7%
- Increased life span T/C (mouse leukemia P-388; 1.5 mg/kg/day × 2 times): 107.3%
- Increased life span T/C (mouse leukemia P-388; 3 mg/kg/day × 2 times): 105.7%
- Increased life span T/C (mouse leukemia P-388; 6 mg/kg/day × 2 times): 120.2%
- Increased life span T/C (mouse leukemia P-388; 12 mg/kg/day × 2 times): 123.3%
- Increased life span T/C (mouse leukemia P-388; 24 mg/kg/day × 2 times): 56.0%
- MIC [2]: 12.5 µg/mL (≈ 19.6 µM)
- MIC [3]: 4 µg/mL (≈ 6.28 µM)
- MIC [4]: 8 µg/mL (≈ 12.6 µM)
- MIC [5]: 4 µg/mL (≈ 6.28 µM)
- MIC [6]: 4 µg/mL (≈ 6.28 µM)
- MIC [7]: 12.5 µg/mL (≈ 19.6 µM)
- Solubility in solvents (Solubility in solvents): soluble in higher alcohols, acetone, chloroform, benzene and ethylacetate; also recorded: Soluble in methanol, ethanol, acetone; also recorded: Sparingly soluble in benzene and ether; also recorded: Insoluble in water, petroleum ether and hexane
- Soluble in (continued line of the solubility entry) (Solubility in solvents): chloroform and ethyl acetate
- Solubility in water (Solubility in solvents): Insoluble in water
- LD50 (Acute toxicity): 55.9 mg/kg

SMILES: COC1C=CC=CC=CCC(OC(=O)[C@@H](C)NC(=O)C2CCCCC2)C(C)C(O)C(C)=CCCc2cc(O)cc(c2O)NC(=O)C1 (stereo partly shown) [T-23-II substance]
- inhibition of the growth of L-5178Y lymphoma cells (L-5178Y lymphoma cells): effective to inhibit the growth of L-5178Y lymphoma cells
- inhibition of the growth of several types of tumor cells [1]: some significant effect to inhibit the growth of several types of tumor cells
- Increased life span T/C (mouse leukemia P-388; 1.25 mg/kg/day × 6 times): 130.0%
- Increased life span T/C (mouse leukemia P-388; 2.5 mg/kg/day × 6 times): 109.9%
- Increased life span T/C (mouse leukemia P-388; 5 mg/kg/day × 6 times): 127.1%
- Increased life span T/C (mouse leukemia P-388; 10 mg/kg/day × 6 times): 120.2%
- Increased life span T/C (mouse leukemia P-388; 20 mg/kg/day × 6 times): 135.7%
- MIC [2]: 12.5 µg/mL (≈ 19.6 µM)
- MIC [3]: 4 µg/mL (≈ 6.26 µM)
- MIC [4]: 12.5 µg/mL (≈ 19.6 µM)
- MIC [5]: 4 µg/mL (≈ 6.26 µM)
- MIC [6]: 4 µg/mL (≈ 6.26 µM)
- MIC [7]: 12.5 µg/mL (≈ 19.6 µM)
- Solubility in solvents (Solubility in solvents): soluble in higher alcohols, acetone, chloroform, benzene and ethylacetate; also recorded: Soluble in chloroform, methanol, ethanol; also recorded: Sparingly soluble in benzene and ether; also recorded: Insoluble in water, petroleum ether and hexane
- Soluble in (continued line of the solubility entry) (Solubility in solvents): acetone and ethyl acetate
- Solubility in water (Solubility in solvents): Insoluble in water
- Increased life span T/C (mouse sarcoma 180; 0.7 mg/kg/day × 4 times): 109.6%
- Increased life span T/C (mouse sarcoma 180; 2.2 mg/kg/day × 4 times): 95.6%
- Increased life span T/C (mouse sarcoma 180; 6.6 mg/kg/day × 4 times): 115.0%
- Increased life span T/C (mouse sarcoma 180; 20 mg/kg/day × 4 times): 138.7%
- LD50 (Acute toxicity): 85.5 mg/kg

SMILES: COC1C=CC=CC=CCC(O)C(C)C(O)C(C)=CCCC2=CC(=O)C=C(NC(=O)C1)C2=O (stereo not shown) [T-23-III substance]
- inhibition of the growth of several types of tumor cells [1]: some significant effect to inhibit the growth of several types of tumor cells
- Solubility in solvents (Solubility in solvents): Soluble in chloroform, ethyl acetate, methanol; also recorded: Sparingly soluble in ethyl ether; also recorded: Insoluble in petroleum ether and water
- Soluble in (continued line of the solubility entry) (Solubility in solvents): toluene
- Solubility in water (Solubility in solvents): Insoluble
- LD50 (Acute toxicity): ~250 mg/kg

SMILES: COC1C=CC=CC=CCC(O)C(C)C(O)C(C)=CCCc2cc(O)cc(c2O)NC(=O)C1 (stereo not shown) [T-23-IV substance]
- inhibition of the growth of several types of tumor cells [1]: some significant effect to inhibit the growth of several types of tumor cells
- Solubility in solvents (Solubility in solvents): Soluble in chloroform, ethyl acetate, methanol; also recorded: Sparingly soluble in benzene and toluene; also recorded: Insoluble in petroleum ether and water
- Soluble in (continued line of the solubility entry) (Solubility in solvents): ethanol, acetone and acetonitrile
- Solubility in water (Solubility in solvents): Insoluble
- LD50 (Acute toxicity): ~280 mg/kg
